Experimental data from patent publication EP0110298A1, “Acridanone derivatives” (F. HOFFMANN-LA ROCHE & CO. Aktiengesellschaft, priority 1982, dated 1984).
Structures can show the parent of a compound that is named as a salt.

Assays:
[1] = system: Schistosoma mansoni; assay: Schistosomicidal (vermicidal) activity in infected mice, single oral treatment, worm count reduction; assay type: in vivo; details: 456 h, Albino-Mäuse infected s.c. with cercariae of a Liberia-Stamm of Schistosoma mansoni, single peroral treatment 46 days after infection, section after 19 days, dose giving 50% reduction of worm count (Probitmethode), read-out: VD50 in mg/kg p.o.
Excerpt: Die schistosomizide Wirkung der erfindungsgemässen Stoffe kann tierexperimentell wie folgt nachgewiesen werden: • Albino-Mäuse mit einem Gewicht von 15-18 g werden subcutan mit 60 + 5 Cercarien eines Liberia-Stammes von Schistosoma mansoni infiziert. 46 Tage nach der Infektion werden die Tiere einmal mit den zu prüfenden Substanzen peroral behandelt. Pro Substanz und Dosierung werden 5-10 Tiere eingesetzt. Als Kontrolle dienen 10 unbehandelte Tiere. Die Sektion erfolgt nach 19 Tagen, worauf Wurmpaare und einzelne Würmer in Mesenterialvenen, Pfortader und Leber herauspräpariert und gezählt werden. Die vermicide Wirkung zeigt sich in einer reduzierten Zahl lebender Parasiten im Vergleich zu der Zahl in den Kontrolltieren.
Zur Auswertung wird die prozentuale Reduktion der Parasiten bei behandelten Tieren im Vergleich zu unbehandelten Kontrolltieren berechnet. Man bestimmt die VD 50 nach der Probitmethode. Die VD50 ist diejenige vermizide Dosis, welche eine 50-proz. Reduktion der Wurmzahl bewirkt.

[2] = Acute toxicity (DL50) after single oral administration to mice; details: mouse, in vivo, read-out: DL50 in mg/kg p.o.
Excerpt: In der nachfolgenden Tabelle werden die Resultate dargestellt, welche mit einigen repräsentativen erfindungsgemässen Substanzen erhalten worden sind. Angegeben werden für jede der darin figurierenden Verbindung die VD50 in mg/kg p.o. und, für einige dieser Verbindungen, die DL50 in mg/kg bei einmaliger oraler Verabreichung an Mäusen.

| Structure (SMILES) | ED50 [1] | LD50 [2] |
| --- | --- | --- |
| CN1CCN(CCn2c3ccccc3c(=NNc3nccs3)c3ccccc32)CC1 [10-12-(4-Methyl-1-piperazinyl)äthyl]-9-acridanon-(2-thiazolyl)hydrazon.2,5 HCl] | 2.4 mg/kg | 625 to 1250 mg/kg |
| NCCn1c2ccccc2c(=NNc2nccs2)c2ccccc21 [10-(2-Aminoäthyl)-9-acridanon-2-thiazolyl-hydrazon-dihydrochlorid] | 2.6 mg/kg | 156 to 312 mg/kg |
| c1ccc2c(c1)c(=NNc1nccs1)c1ccccc1n2CCN1CCCCC1 [10-[2-(1-Piperidinyl)äthyl]-9-acridanon-(2-thiazolyl)hydrazon-l,5 HCl] | 9 mg/kg | 312 to 625 mg/kg |
| c1ccc2c(c1)c(=NN=C1NCCS1)c1ccccc1n2CCN1CCCC1 [10-[2-(1-Pyrrolidinyl)äthyl]-9-acridanon-(2-thiazolidinyliden)hydrazon] | 6.2 mg/kg | 156 to 312 mg/kg |
| CC(=O)N1CCN(CCn2c3ccccc3c(=NN=C3NCCS3)c3ccccc32)CC1 [10-[2-(4-Acetyl-1-piperazinyl)äthyl]-9-acridanon-(2-thiazolidinyliden)-hydrazon] | 3.4 mg/kg | 1250 to 2500 mg/kg |
| CC(=O)N1CCN(CCn2c3ccccc3c(=NNc3nccs3)c3ccccc32)CC1 [10-[2-(4-Acetyl-1-piperazinyl)äthyl]-9-acridanon-(2-thiazolyl)hydrazon-dihydrochlorid] | 2.6 mg/kg | 312 to 625 mg/kg |
| CN1CCN(CCn2c3ccccc3c(=NN=C3NCCS3)c3ccccc32)CC1 [10-[2-(4-Methyl-1-piperazinyl)äthyl]-9-acridanon-(2-thiazolidinyliden)hydrazon] | 4 mg/kg | 156 to 312 mg/kg |
| CN(C)CCn1c2ccccc2c(=NN=C2NCCS2)c2ccccc21 [10-[2-(Dimethylamino)-äthyl]-9-acridanon-(2-thiazolidinyliden)hydrazon] | 6.4 mg/kg | 250 to 500 mg/kg |
| CN(C)CCn1c2ccccc2c(=NNc2nccs2)c2ccccc21 [10-[2-(Dimethylamino)äthyl]-9-acridanon-(2-thiazolyl)hydrazon-dihydrochlorid] | 4.9 mg/kg | 312 to 625 mg/kg |
| CCN(CC)CCn1c2ccccc2c(=NNc2nccs2)c2ccccc21 [10-[2-(Diäthylamino)äthylJ-9-acridanon-(2-thiazolyl)hydrazon-dihydrochlorid] | 3.3 mg/kg | > 5000 mg/kg |
| CCN(CC)CCn1c2ccccc2c(=NN=C2NCCS2)c2ccccc21 [10-[2-(Diäthylamino)äthyl]-9-acridanon-(2-thiazolidinyliden)hydrazon] | 9.5 mg/kg | 312 to 625 mg/kg |
| CN(C)CCCn1c2ccccc2c(=NN=C2NCCS2)c2ccccc21 [10-[3-(Dimethylamino)propyl]-9-acridanon-(2-thiazolidinyliden)hydrazon] | 4.7 mg/kg | 125 to 250 mg/kg |
| CN(C)CCCn1c2ccccc2c(=NNc2nccs2)c2ccccc21.Cl.Cl [10-[3-(Dimethylamino)propyl]-9-acridanon-(2-thiazolyl)hydrazon-dihydrochlorid] | 3.5 mg/kg | 312 to 625 mg/kg |
